US20230210831A1, “CHRONIC KIDNEY DISEASE TREATMENT OR PREVENTION METHOD” (Japan Tobacco Inc., priority 2019, published 2023)

Assays:
glucose-loaded SD rats [1] = experiment: OGTT (oral glucose tolerance test), Test Example 3; format: in vivo, rat; settings: 3 mg/kg orally 16 hours before glucose load; male SD rats; compared to vehicle
Method: Vehicle (0.5% methylcellulose solution), or Compound 1, Compound A, or Compound B (3 mg/kg each) suspended in a 0.5% methylcellulose solution was orally administered in 5 mL/kg to an about 4-hour-fasted male SD rat (8-week old, Nihon Charles River K.K., 5 cases for each group).
Statistical analyses were based on Dunnett’s multiple group test. The significance level was two-sided 5%.

SDT fatty rats = experiment: Assessment of renal protective effect (GFR in SDT fatty rats); format: in vivo, rat; settings: 2 mg/kg orally once a day, 16 weeks; male SDT fatty rats
Method: Vehicle (0.5% methyl cellulose solution), Compound 1 (2 mg/kg), or dapagliflozin (0.3 mg/kg) was orally administered once a day to male SDT fatty rats (7-week old, CLEA Japan, Inc.); and as a normal control, vehicle was orally administered once a day to male SD rats (7-week old, CLEA Japan, Inc.). 16 Weeks after the administration, GFR (mL/min/100 g B.W.) was measured with a transdermal GFR monitor (MediBeacon). For statistical analysis, Student’s test was conducted between the vehicle-administered group of SD rats and the vehicle-administered group of SDT fatty rats. Dunnett’s multiple test was conducted for the Compound 1 and dapagliflozin groups to the vehicle group of SDT fatty rats. The significance level was two-sided 5%.

human SGLT1 = target: T1, human SGLT1 (Homo sapiens, UniProt P13866); experiment: Assessment of SGLT1 inhibitory activity (14C-AMG uptake in human SGLT1-stably-expressing CHO-K1 cells); format: cell-based
T1 construct: expressed in transfected cells; PCR template pCMV6-hSGLT1 (OriGene)
T1 sequence (P13866 1-664): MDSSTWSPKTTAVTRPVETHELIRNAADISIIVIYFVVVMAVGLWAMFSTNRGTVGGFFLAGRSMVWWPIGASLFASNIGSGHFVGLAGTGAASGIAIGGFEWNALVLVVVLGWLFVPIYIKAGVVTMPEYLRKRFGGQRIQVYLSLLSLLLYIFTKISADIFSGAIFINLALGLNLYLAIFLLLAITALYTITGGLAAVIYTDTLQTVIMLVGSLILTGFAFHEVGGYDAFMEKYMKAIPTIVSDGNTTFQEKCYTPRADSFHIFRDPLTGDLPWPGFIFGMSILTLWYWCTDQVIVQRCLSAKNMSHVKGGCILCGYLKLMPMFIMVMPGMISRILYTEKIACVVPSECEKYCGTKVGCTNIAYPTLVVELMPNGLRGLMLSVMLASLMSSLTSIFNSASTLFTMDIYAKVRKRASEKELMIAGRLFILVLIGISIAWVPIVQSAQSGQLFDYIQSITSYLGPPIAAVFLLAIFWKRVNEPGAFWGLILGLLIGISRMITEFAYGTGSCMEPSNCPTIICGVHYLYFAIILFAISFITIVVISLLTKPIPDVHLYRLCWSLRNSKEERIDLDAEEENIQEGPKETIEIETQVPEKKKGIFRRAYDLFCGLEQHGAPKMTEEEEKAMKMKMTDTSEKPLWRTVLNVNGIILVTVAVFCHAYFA
Method: SGLT1 inhibitory activities of test compounds (IC50 values) were calculated based on the amount of intracellular uptake of labelled α-methyl-D-glucopyranoside (^14C-AMG) transported by SGLT1.
A DNA fragment containing human SGLT1 was amplified by PCR (Polymerase Chain Reaction) using pCMV6-hSGLT1 (OriGene) as a template. In the human SGLT1, NheI recognition and cleavage sequence was added to the upstream of Kozac consensus sequence derived from a vector, and a stop codon, TAG, and SalI recognition and cleavage sequence were added to the immediate downstream of the protein-translating region of human SGLT1. […]
Human SGLT1-stably-expressing cell lines were seeded at 5 x 10^4 cells/well on BioCoat™ Poly-D-Lysine 96 well plate with Lid (Becton, Dickinson and Company) and cultured at 37° C. under 5% CO2 overnight. […] In the assessment for the uptake ability of 14C-AMG, the total amount of the cell lysate was transferred to OptiPlate 96 (Perkin-Elmer) with 100 µL/well of MicroScint-40 (Perkin-Elmer) dispensed and ^14 C of CPM was measured with TOPCOUNT NXT (Perkin-Elmer).
Data was calculated by deducting the average value of CPM for blank well from the average value of CPM for each well treated. An inhibition rate for each test compound in each concentration was calculated from the following equation: […]

⅚-kidney-removed rats = experiment: Assessment of renal protective effect 2 (⅚-kidney-removed rats); format: in vivo, rat; settings: 2 mg/kg/day mixed with feed, vs vehicle-administered group
Method: 7-Week old male Wistar rats (Japan SLC, Inc.) were treated by removing ⅔ of the left kidney under isoflurane anesthesia and then removing the whole right kidney one week later to prepare ⅚-kidney-removed rats. Compound 1 (2 mg/kg/day) mixed with feed was orally administered to the rats from the age of 9 weeks. As a normal control, male Wistar rats at the same age were set as a sham group. […] For statistical analysis, Student’s test was conducted between the vehicle-administered group and the Compound 1-administered group. […] For statistical analysis, Student’s test or Aspin-Welch was conducted.

glucose-loaded SD rats [2] = experiment: OGTT (oral glucose tolerance test), Test Example 2; format: in vivo, rat; settings: 1, 3, or 10 mg/kg orally 16 hours before glucose load; male SD rats; compared to vehicle
Method: Vehicle (0.5% methylcellulose solution) or Compound 1 (1, 3, or 10 mg/kg) suspended in a 0.5% methylcellulose solution was orally administered in 5 mL/kg to an about 4-hour-fasted male SD rat (8-week old, Nihon Charles River K.K., 6 cases for each group).
Statistical analyses were based on Steel’s multiple test. The significance level was two-sided 5%.

## C[C@H]1C(=O)NC[C@@H]1C(=O)Nc1cc(-c2cc(F)cc(OC(C)(C)C)c2)n(C(F)(F)F)n1 [Compound 1, (3R,4R)-N-(5-(3-(tert-butoxy)-5-fluorophenyl)-1-(trifluoromethyl)-1H-pyrazol-3-yl)-4-methyl-5-oxopyrrolidine-3-carboxamide]
glucose-loaded SD rats [1]
  blood glucose level after the glucose load (Δ AUC to 120 minutes, % of Vehicle): significantly reduced
SDT fatty rats
  GFR: inhibited the increase of GFR
Human SGLT1
  SGLT1 inhibitory activity: confirmed to have the SGLT1 inhibitory activity
⅚-kidney-removed rats
  protein quantity in the urine: lower than those of the vehicle-administered group
  urea nitrogen level: significantly lower than those of the vehicle-administered group
glucose-loaded SD rats [2]
  blood glucose level after the glucose load (Δ AUC to 120 minutes, % of Vehicle): significantly reduced
